Publication PMC5374710, “Discovery of the first dual GSK3β inhibitor/Nrf2 inducer. A new multitarget therapeutic strategy for Alzheimer’s disease” (Scientific Reports, 2017)

What was measured:
[1] = system: iNOS; experiment: iNOS expression in LPS-stimulated glial cultures (western blot); type: cell-based, rat; details: 30 μM, LPS 1 μg/mL
Method: (§1) TNFα is considered one of the most important pro-inflammatory cytokines. […] The production of TNFα induced by LPS was reduced by 33% at 10 μM and by 50% at 30 μM. […] To further confirm the anti-inflammatory potential of compound 5c we measured the expression of thre NOX2 enzyme, since this isoform has been widely described as being specific tomicroglial cells. As depicted in Fig. 6F, LPS (1 μg/mL) stimulation of primary glial cultures during 24 h increased the expression of NOX2 by 65.3% (p < 0.01) compared to basal conditions.
(§2) Figure 6 Nitrites (A), TNFα (B), iNOS (C) and NOX activity (E) blockade (D) and NOX2 production (F) by 5c in primary glial cultures stimulated with LPS (1 μg/mL), HO-1 expression induced by this compound after 24 h. […] NOX activity was measured after 4 h co-treatment with LPS and compound 5c. […]
(§3) After treatment, mixed glial cells were washed with cold PBS and lysed in 100 μl ice-cold lysis buffer (1% Nonident P-40, 10% glycerol, 137 mM NaCl, 20 mM Tris HCl pH 7.5, 1 μg/ml leupeptin, 1 mM phenylmethylsulfonyl fluoride, 20 mM NaF, 1 mM sodium pyrophosphate, and 1 mM Na3VO4). […] Peroxidase-conjugated secondary antibodies (1:10000) were used to detect proteins by enhanced chemiluminescence detected by Advance Western-blotting Detection Kit (GE Healthcare, Barcelona, Spain). […]

[2] = system: HO-1; experiment: HO-1 expression in glial cultures (western blot); type: cell-based, rat; details: 30 μM, 24 h
Method: as §1, §2, §3

What does the source list for COc1cccc(C2C(C#N)=C(N)Oc3n[nH]c(C)c32)c1 (centres unmarked) [Compound 5c, 6-Amino-4-(3-methoxyphenyl)-3-methyl-2,4-dihydropyrano[2,3-c]pyrazole-5-carbonitrile]?
Reduction of iNOS expression [1]: almost completely; HO-1 expression increase in glial cultures [2]: 2.3 times
